The values below come from patent publication US4625016A, “Collagen inhibiting compositions and processes for manufacturing and using same” (University of Medicine and Dentistry of New Jersey, priority 1983, dated 1986).

One assay relates to KB cells. Particulars: as disclosed in 266 Nature 63 (1977); cited from earlier work.
Assay [1] deals with normal human skin fibroblasts. Kind of assay: Attachment and growth of human skin fibroblasts in plastic culture flasks (assay of collagen synthesis). It counts as cell-based. The source says: The principle of the test system is that when collagen-producing cells, such as normal skin fibroblasts are introduced into a plastic flask containing a nutrient medium, the cells attach to the surface of the flask and grow. However, firm attachment of normal fibroblasts to the surface of the flask requires that the cells first synthesize a "pad" comprised of collagen fibers and several other materials through which the collagen producing cells attach to the plastic surface. If synthesis of normal collagen fibers is prevented, the collagen-producing cells, such as the normal skin fibroblasts, will not attach and therefore will not grow. […] The manner in which cis-4-hydroxy-L-proline produces these effects has been disclosed in 336 Biochimica et Biophysica Acta 234, (1974); 174 Archives of Biochemistry and Biophysics 381 (1976); 226 Nature 63 (1977); and 272 Nature 622 (1978).
None of the three polymeric compositions are soluble in water and are consequently dissolved in 50% acetic acid and water. The solution is placed dropwise on a microscopic coverslip and the solvent evaporated with warm air from a hair dryer. The coverslip, coated with the composition, is then placed in a plastic culture flask (75 cm^2; Falcon). From 5×10^5 to 10.5×10^5 normal human fibroblasts in 2 ml of cell culture medium are added to the flask. The flask is incubated at 37° C. in 5% carbon dioxide and 95% air for 3 to 5 days, and the number of cells in the flask counted. Control sample contained microscopic coverslips treated with an equal volume of solvent and air-dried.

Where only a bound is given, the exact number is not on record here.

`O=C(O)[C@@H]1C[C@H](O)CN1` [cis-4-Hydroxy-L-proline, cis-4-hydroxy-L-proline]: the “Growth of cells which do not produce collagen (in words)” value with KB cells was “not inhibited”. The “Cells per flask, Final” value in assay [1] (Expt. 1, dosage level 250 μg/ml, initial 5.0 × 10^5, 3 to 5 days, None: 67) is on record as < 1 × 10^5; in assay [1] (Expt. 2, dosage level 100 μg/ml, initial 10.3 × 10^5, None: 98), 2.2 × 10^5; in assay [1] (Expt. 3, dosage level 50 μg/ml, initial 7.0 × 10^5, None: 56) it was 12 × 10^5; in assay [1] (Expt. 3, dosage level 150 μg/ml, initial 7.0 × 10^5, None: 56), 1.3 × 10^5. Also, the “Attachment and growth of normal fibroblasts (in words)” value in assay [1] (no dose stated) is “prevents attachment and growth”.
